Test results from patent US10590078B2, “Sodium channel blockers” (Daewoong Pharmaceutical Co., Ltd., priority 2015, dated 2020).
pIC50: −log10 of the molar value.

Target: human sodium ion channel 1.7 (hNav1.7) (Homo sapiens, UniProt Q15858)
Assay: Blocking effect against sodium ion channel Nav1.7, IonFlux16 auto patch clamp in hNav1.7 HEK293 cells
Assay type: cell-based
Conditions: hNav1.7 HEK293 cells; inhibition of peak current after 50 seconds treatment; eight concentrations; read-out: IC50

human sodium ion channel 1.7 (hNav1.7), sequence (Q15858 whole entry): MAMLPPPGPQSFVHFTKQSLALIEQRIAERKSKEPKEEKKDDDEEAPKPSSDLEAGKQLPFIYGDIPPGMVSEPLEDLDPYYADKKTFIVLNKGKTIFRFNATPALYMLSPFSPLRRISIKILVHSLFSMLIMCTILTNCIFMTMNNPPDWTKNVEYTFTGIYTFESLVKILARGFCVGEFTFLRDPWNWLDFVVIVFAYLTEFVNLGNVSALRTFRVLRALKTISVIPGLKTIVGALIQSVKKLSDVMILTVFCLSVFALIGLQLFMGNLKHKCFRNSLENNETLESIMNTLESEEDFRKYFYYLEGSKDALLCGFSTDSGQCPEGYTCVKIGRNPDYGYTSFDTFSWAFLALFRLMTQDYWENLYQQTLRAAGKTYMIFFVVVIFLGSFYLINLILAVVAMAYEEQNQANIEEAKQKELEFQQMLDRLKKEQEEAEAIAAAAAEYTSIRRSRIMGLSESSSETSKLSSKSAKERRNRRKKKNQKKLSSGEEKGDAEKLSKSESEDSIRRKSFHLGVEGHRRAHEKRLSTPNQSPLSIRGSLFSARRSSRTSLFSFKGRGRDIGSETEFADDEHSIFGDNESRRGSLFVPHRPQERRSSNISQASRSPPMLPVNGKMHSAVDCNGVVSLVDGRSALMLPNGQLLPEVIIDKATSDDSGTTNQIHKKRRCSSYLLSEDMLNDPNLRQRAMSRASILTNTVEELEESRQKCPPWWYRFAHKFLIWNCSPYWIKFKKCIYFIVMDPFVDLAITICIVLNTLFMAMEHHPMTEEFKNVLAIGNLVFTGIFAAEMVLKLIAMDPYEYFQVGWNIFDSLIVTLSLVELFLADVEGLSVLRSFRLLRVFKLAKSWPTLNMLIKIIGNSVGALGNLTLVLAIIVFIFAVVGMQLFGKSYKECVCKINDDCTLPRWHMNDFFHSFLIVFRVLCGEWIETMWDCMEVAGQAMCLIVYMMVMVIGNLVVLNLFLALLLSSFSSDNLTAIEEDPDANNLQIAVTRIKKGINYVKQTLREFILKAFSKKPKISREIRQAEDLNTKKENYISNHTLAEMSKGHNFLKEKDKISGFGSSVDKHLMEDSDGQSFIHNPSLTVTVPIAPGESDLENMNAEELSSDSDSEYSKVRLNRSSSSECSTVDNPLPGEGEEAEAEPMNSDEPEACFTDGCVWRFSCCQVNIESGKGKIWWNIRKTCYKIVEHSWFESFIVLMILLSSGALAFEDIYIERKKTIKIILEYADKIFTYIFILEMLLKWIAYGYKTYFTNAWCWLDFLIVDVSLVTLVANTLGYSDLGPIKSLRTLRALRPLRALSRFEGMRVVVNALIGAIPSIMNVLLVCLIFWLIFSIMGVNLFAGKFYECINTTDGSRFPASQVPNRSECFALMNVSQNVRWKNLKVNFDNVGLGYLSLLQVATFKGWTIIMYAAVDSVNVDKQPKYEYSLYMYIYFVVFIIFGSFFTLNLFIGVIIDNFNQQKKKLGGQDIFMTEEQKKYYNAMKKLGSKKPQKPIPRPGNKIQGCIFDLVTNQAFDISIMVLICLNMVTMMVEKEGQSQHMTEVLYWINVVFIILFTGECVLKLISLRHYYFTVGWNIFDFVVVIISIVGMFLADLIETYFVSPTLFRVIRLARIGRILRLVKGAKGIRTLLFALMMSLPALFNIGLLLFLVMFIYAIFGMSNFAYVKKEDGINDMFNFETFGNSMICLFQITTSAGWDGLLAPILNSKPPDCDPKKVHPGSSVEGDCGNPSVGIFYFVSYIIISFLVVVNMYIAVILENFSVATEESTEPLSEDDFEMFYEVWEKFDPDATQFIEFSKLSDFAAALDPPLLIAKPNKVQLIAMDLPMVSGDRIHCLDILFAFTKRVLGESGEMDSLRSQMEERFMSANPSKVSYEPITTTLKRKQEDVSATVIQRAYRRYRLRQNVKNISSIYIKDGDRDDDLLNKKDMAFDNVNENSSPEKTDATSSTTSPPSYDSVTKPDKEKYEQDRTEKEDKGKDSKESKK

Compound | pIC50
COc1ccccc1-c1nn(-c2cc(F)c(C(=O)NS(C)(=O)=O)cc2Cl)c2ccc(F)cc12 [Example 146, 5-chloro-2-fluoro-4-(5-fluoro-3-(2-methoxyphenyl)-1H-indazol-1-yl)-N-(methylsulfonyl)benzamide] | 6.70
CS(=O)(=O)NC(=O)c1cc(Cl)c(-n2cc(-c3ccc(Cl)cc3)c3cc(F)cnc32)cc1F [Example 204, 5-chloro-4-(3-(4-chlorophenyl)-5-fluoro-1H-pyrrolo[2,3-b]pyridin-1-yl)-2-fluoro-N-(methylsulfonyl)benzamide] | 7.00
CS(=O)(=O)NC(=O)c1cc(Cl)c(-n2nc(-c3cccc(C#N)c3)c3cc(Cl)ccc32)cc1F [Example 61, 5-chloro-4-(5-chloro-3-(3-cyanophenyl)-1H-indazol-1-yl)-2-fluoro-N-(methylsulfonyl)benzamide] | 7.02
CS(=O)(=O)NC(=O)c1cc(Cl)c(-n2cc(-c3ccc(F)cc3)c3cc(F)cnc32)cc1F [Example 206, 5-chloro-2-fluoro-4-(5-fluoro-3-(4-fluorophenyl)-1H-pyrrolo[2,3-b]pyridin-1-yl)-N-(methylsulfonyl)benzamide] | 6.68
CS(=O)(=O)NC(=O)c1cc(Cl)c(-n2cc(Cl)c3c(Cl)c(O)ccc32)cc1F [Example 267, 5-chloro-4-(3,4-dichloro-5-hydroxy-1H-indol-1-yl)-2-fluoro-N-(methylsulfonyl)benzamide] | < 5.00
CS(=O)(=O)NC(=O)c1cc(Cl)c(-n2cc(-c3ccc(Cl)cc3Cl)c3cc(F)cnc32)cc1F [Example 209, 5-chloro-4-(3-(2,4-dichlorophenyl)-5-fluoro-1H-pyrrolo[2,3-b]pyridin-1-yl)-2-fluoro-N-(methylsulfonyl)benzamide] | 7.40
COc1ccc(-c2cnc3c(c2)c(Cl)cn3-c2cc(F)c(C(=O)NS(C)(=O)=O)cc2Cl)cc1 [Example 260, 5-chloro-4-(3-chloro-5-(4-methoxyphenyl)-1H-pyrrolo[2,3-b]pyridin-1-yl)-2-fluoro-N-(methylsulfonyl)benzamide] | 6.33
CS(=O)(=O)NC(=O)c1cc(Cl)c(-n2nc(Cl)c3cc(OCc4ccc(F)cc4)ccc32)cc1F [Example 36, 5-chloro-4-(3-chloro-5-((4-fluorobenzyl)oxy)-1H-indazol-1-yl)-2-fluoro-N-(methylsulfonyl)benzamide] | 7.06
CS(=O)(=O)NC(=O)c1ccc(-n2nc(Cl)c3cc(Cl)ccc32)cc1F [Example 4, 4-(3,5-dichloro-1H-indazol-1-yl)-2-fluoro-N-(methylsulfonyl)benzamide] | < 5.00
Cn1cc(-c2nn(-c3cc(F)c(C(=O)NS(C)(=O)=O)cc3Cl)c3ccc(Cl)cc23)cn1 [Example 88, 5-chloro-4-(5-chloro-3-(1-methyl-1H-pyrazol-4-yl)-1H-indazol-1-yl)-2-fluoro-N-(methylsulfonyl)benzamide] | < 5.00
CS(=O)(=O)NC(=O)c1ccc(-n2nc(-c3ccc(Cl)cc3F)c3cc(Cl)ccc32)nc1 [Example 128, 6-(5-chloro-3-(4-chloro-2-fluorophenyl)-1H-indazol-1-yl)-N-(methylsulfonyl)nicotinamide] | 5.88
COc1cc(F)ccc1-c1cn(-c2cc(F)c(C(=O)NS(C)(=O)=O)cc2Cl)c2ncc(Cl)cc12 [Example 199, 5-chloro-4-(5-chloro-3-(4-fluoro-2-methoxyphenyl)-1H-pyrrolo[2,3-b]pyridin-1-yl)-2-fluoro-N-(methylsulfonyl)benzamide] | 6.70
CS(=O)(=O)NC(=O)c1cc(Cl)c(-n2nc(N)c3cc(Cl)ccc32)cc1F [Example 5, 4-(3-amino-5-chloro-1H-indazol-1-yl)-5-chloro-2-fluoro-N-(methylsulfonyl)benzamide] | < 5.00
CS(=O)(=O)NC(=O)c1cc(Cl)c(-n2nc(-c3cccnc3)c3cc(Cl)ccc32)cc1F [Example 50, 5-chloro-4-(5-chloro-3-(pyridin-3-yl)-1H-indazol-1-yl)-2-fluoro-N-(methylsulfonyl)benzamide] | 6.04
